{"source": "patent US20200147118A1", "about": "“COMPOSITIONS AND METHODS FOR DETECTION, RISK ASSESSMENT AND TREATMENT OF DIABETES, OBESITY, AND INFLAMMATION” (OTTAWA HEART INSTITUTE RESEARCH CORPORATION, priority 2018, published 2020)", "origin": "cited, not measured here", "test_system": "iNKTs", "settings": "obese mice, WT vehicle vs WT αGalCer, dataset GSE36032", "data": [{"smiles": "CCCCCCCCCCCCCCCCCCCCCCCCCC(=O)N[C@@H](CO[C@H]1O[C@H](CO)[C@H](O)[C@H](O)[C@H]1O)[C@H](O)[C@H](O)CCCCCCCCCCCCCC", "note": "[αGalCer]", "values": [{"measurement": "E4bp4 expression in adipose tissue", "value": "increases"}, {"measurement": "Ripk1 expression in adipose tissue", "value": "reduces"}]}]}
